Key:
Format in all cases: biochemical
human TK1 = target: T1, human TK1 (Homo sapiens, UniProt P06870); assay: Inhibition of TK1 (Ki); details: activated human TK1, substrate H-Pro-Phe-Arg-AMC, 24° C.
T1 construct: purchased R&D Systems
Procedure: The ability of compounds of formula (I) to inhibit plasma kallikrein (PKK), Factor XIIa (FXIIa), Factor XIa (FXIa), Factor Xa (FXa), Factor IIa (alpha-thrombin; FIIa), plasmin, trypsin, tissue kallikrein 1 (TK1), Factor VIIa (FVIIa), or FVIIa complexed with Tissue Factor, phospholipids and CaCl2 (FVIIa/TF/PL/CaCl2) is determined using the following biochemical assays in assay buffer (100 mM Tris, 150 mM NaCL, adjusted to a pH of 7.8 with HCl, and containing 0.1% (w/v) BSA and 0.05% (v/v) Tween20) in the presence of 1% (v/v) DMSO:
Prior to the assay, human TK1 (R&D Systems) is activated by incubation with human trypsin (Calbiochem) in a 1:10,000 ratio for 15 min at 37° C. For assaying TK1 inhibitory activity, activated TK1 (31.25 nM or 1 U/mL) is incubated at 24° C. with 0.1 mM fluorogenic substrate H-Pro-Phe-Arg-AMC (11295 from Bachem) and various concentrations of the test compound in assay buffer. Measurements are performed in a kinetic interval every 2nd minute for 16 min using a Spectramax M5 (Molecular Devices) with the following settings of the wavelength excitation of 350 nm and wavelength emission of 450 nm.
The pIC50 values are then fitted using a four-parametric fitting procedure using GraphPad Prism (version 6; GraphPad Software, Inc.). Respective Ki values are obtained by correction of the IC50 values for the respective KM value of the used substrate (see Table A for the obtained KM values of the used substrates) using the following formula:
[formula] Where the IC50 is in molar and the KM value in mM.

Human PKK = target: T2, Human PKK (Homo sapiens, UniProt P03952); assay: Inhibition of PKK using an endpoint assay (human PKK); details: fluorogenic substrate H-Pro-Phe-Arg-AMC, 1 h room temperature, method names human or rat PKK, table does not say which
T2 construct: purchased Enzyme Research Laboratories
In short: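 Endpoint fluorescence (ex 355 nm, em 460 nm) after stopping with 1 μM final PPACK II. Buffer: Tris 100 mM pH 7.8, NaCl 150 mM, BSA 0.1%, Tween20 0.05%, with 1% DMSO present; enzyme is human plasma kallikrein.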

[1] = target: T3, PKK in kaolin activated human platelet poor plasma (Homo sapiens, UniProt P03952); assay: Inhibition of PKK in kaolin activated human PPP; details: 25-750 μg/mL kaolin, global fit, text b200 calls the values IC90;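 further: readout is the rate of fluorogenic substrate cleavage in rfu per min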
T3 construct: Platelet poor plasma (PPP) obtained from human wholeblood; from tissue
Procedure: Platelet poor plasma (PPP) obtained from human wholeblood, anticoagulated with Na-Citrate, is incubated with various concentrations of the test compound together with either 25, 75, 250, or 750 μg/mL kaolin in assay buffer for 20 min at 37° C. such that for each kaolin dose used a concentration response is obtained for the test compound.

T3 sequence (P03952 391-638 limits assumed): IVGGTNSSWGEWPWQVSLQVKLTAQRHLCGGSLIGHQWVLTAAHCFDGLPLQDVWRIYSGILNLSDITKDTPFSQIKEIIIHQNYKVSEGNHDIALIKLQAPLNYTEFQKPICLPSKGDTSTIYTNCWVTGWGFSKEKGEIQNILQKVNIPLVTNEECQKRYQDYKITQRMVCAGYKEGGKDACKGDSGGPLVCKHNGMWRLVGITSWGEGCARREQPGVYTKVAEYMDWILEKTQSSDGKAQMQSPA
T3 sequence (P03952 20-390 limits assumed): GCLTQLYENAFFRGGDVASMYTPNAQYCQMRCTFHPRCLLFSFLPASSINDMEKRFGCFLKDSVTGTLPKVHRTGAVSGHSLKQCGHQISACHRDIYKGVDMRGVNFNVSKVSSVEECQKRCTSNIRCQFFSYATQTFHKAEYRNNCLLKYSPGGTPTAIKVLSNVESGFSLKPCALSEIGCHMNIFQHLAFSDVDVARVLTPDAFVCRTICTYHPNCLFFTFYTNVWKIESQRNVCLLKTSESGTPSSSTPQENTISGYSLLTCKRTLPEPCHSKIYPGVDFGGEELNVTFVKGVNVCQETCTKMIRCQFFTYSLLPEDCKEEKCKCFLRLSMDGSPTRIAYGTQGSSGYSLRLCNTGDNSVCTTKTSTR
T2 sequence (P03952 20-390 limits assumed): as above
T2 sequence (P03952 391-638 limits assumed): as the sequence (P03952 391-638 limits assumed) above
T1 sequence (P06870 25-262): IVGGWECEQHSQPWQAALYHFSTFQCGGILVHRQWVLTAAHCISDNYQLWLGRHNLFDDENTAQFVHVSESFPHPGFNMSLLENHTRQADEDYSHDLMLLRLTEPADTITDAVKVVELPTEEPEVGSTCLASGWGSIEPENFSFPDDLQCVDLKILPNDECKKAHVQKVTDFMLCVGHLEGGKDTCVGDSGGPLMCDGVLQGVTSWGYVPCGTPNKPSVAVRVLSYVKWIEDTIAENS

SMILES	Ki (human TK1)	IC50 (Human PKK)	IC50 [1]
Cc1nc(N2CC3(CC3)C2)ncc1Cn1cc(C(=O)N[C@@H]2CCc3c2ncn3C)cn1 [Example 222, 1-[(2-{5-Azaspiro[2.3]hexan-5-yl}-4-methylpyrimidin-5-yl)methyl]-N-[(4R)-1-methyl-1H,4H,5H,6H-cyclopenta[d]imidazol-4-yl]-1H-pyrazole-4-carboxamide]	7.28 µM	11.6 nM	
Cn1cnc2c1CC[C@H]2NC(=O)c1cnn(Cc2ccc(N3CC4CC4C3)nc2C2CC2)c1 (stereo partly drawn) [Example 117, 1-[(6-{3-Azabicyclo[3.1.0]hexan-3-yl}-2-cyclopropylpyridin-3-yl)methyl]-N-[(4R)-1-methyl-1H,4H,5H,6H-cyclopenta[d]imidazol-4-yl]-1H-pyrazole-4-carboxamide]	> 10 µM	2.2 nM	1540 nM
Cc1nc(N2CC3CC3C2)ccc1Cc1ccc(C(=O)N[C@@H]2CCc3c2ncn3C)o1 (stereo partly drawn) [Example 181, 5-[(6-{3-Azabicyclo[3.1.0]hexan-3-yl}-2-methylpyridin-3-yl)methyl]-N-[(4R)-1-methyl-1H,4H,5H,6H-cyclopenta[d]imidazol-4-yl]furan-2-carboxamide]	> 10 µM	10.9 nM	22300 nM
Cc1nc(N2CC3C(C2)C3(F)F)cnc1Cn1cc(C(=O)N[C@@H]2CCc3c2ncn3C)nn1 (stereo partly drawn) [Example 94, 1-[(5-{6,6-Difluoro-3-azabicyclo[3.1.0]hexan-3-yl}-3-methylpyrazin-2-yl)methyl]-N-[(4R)-1-methyl-1H,4H,5H,6H-cyclopenta[d]imidazol-4-yl]-1H-1,2,3-triazole-4-carboxamide]		10.8 nM	1760 nM
Cc1cc(N2CC3CC3C2)ncc1Cn1cc(C(=O)N[C@@H]2CCc3c2ncn3C)cn1 (stereo partly drawn) [Example 113, 1-[(6-{3-Azabicyclo[3.1.0]hexan-3-yl}-4-methylpyridin-3-yl)methyl]-N-[(4R)-1-methyl-1H,4H,5H,6H-cyclopenta[d]imidazol-4-yl]-1H-pyrazole-4-carboxamide]	> 10 µM	9.9 nM	
Cn1cnc2c1CC[C@H]2NC(=O)c1cn(Cc2ccc(N3CC4C(C3)C4(F)F)nc2F)nn1 (stereo partly drawn) [Example 25, 1-[(6-{6,6-Difluoro-3-azabicyclo[3.1.0]hexan-3-yl}-2-fluoropyridin-3-yl)methyl]-N-[(4R)-1-methyl-1H,4H,5H,6H-cyclopenta[d]imidazol-4-yl]-1H-1,2,3-triazole-4-carboxamide]		2 nM	286 nM
Cn1cnc2c1CC[C@H]2NC(=O)c1cnn(Cc2ccc(N3CC4C(C3)C4(F)F)cc2C#N)c1 (stereo partly drawn) [Example 208, 1-[(2-cyano-4-{6,6-difluoro-3-azabicyclo-[3.1.0]hexan-3-yl}phenyl)methyl]-N-[(4R)-1-methyl-1H,4H,5H,6H-cyclopenta[d]imidazol-4-yl]-1H-pyrazole-4-carboxamide]		0.6 nM	80 nM
Cn1cnc2c1CC[C@H]2NC(=O)c1ccn(Cc2ccc(N3CC4C(C3)C4(F)F)nc2)c1 (stereo partly drawn) [Example 140, 1-[(6-{6,6-Difluoro-3-azabicyclo[3.1.0]hexan-3-yl}pyridin-3-yl)methyl]-N-[(4R)-1-methyl-1H,4H,5H,6H-cyclopenta[d]imidazol-4-yl]-1H-pyrrole-3-carboxamide]		5.8 nM	760 nM
Cn1cnc2c1CC[C@H]2NC(=O)c1cn(Cc2ccc(N3CC4(CC4)C3)nc2)cn1 [Example 74, 1-[(6-{5-Azaspiro[2.3]hexan-5-yl}pyridin-3-yl)-methyl]-N-[(4R)-1-methyl-1H,4H,5H,6H-cyclopenta[d]imidazol-4-yl]-1H-imidazole-4-carboxamide]		6.9 nM	321 nM
Cn1cnc2c1CC[C@H]2NC(=O)c1cc(Cc2ccc(N3CC4CC4C3)nc2)no1 (stereo partly drawn) [Example 151, 3-[(6-{3-Azabicyclo[3.1.0]hexan-3-yl}pyridin-3-yl)methyl]-N-[(4R)-1-methyl-1H,4H,5H,6H-cyclopenta[d]imidazol-4-yl]-1,2-oxazole-5-carboxamide]		3.6 nM	1140 nM

The remaining lines, values ahead:

Ki (human TK1)	IC50 (Human PKK)	IC50 [1]	SMILES
> 10 µM	0.8 nM	469 nM	Cc1nc(N2CC3(CC3)C2)ccc1Cn1cnc(C(=O)N[C@@H]2CCc3c2ncn3C)c1 [Example 170, 1-[(6-{5-Azaspiro[2.3]hexan-5-yl}-2-methylpyridin-3-yl)methyl]-N-[(4R)-1-methyl-1H,4H,5H,6H-cyclopenta[d]imidazol-4-yl]-1H-imidazole-4-carboxamide]
> 10 µM	1.2 nM	1680 nM	Cn1cnc2c1CC[C@H]2NC(=O)c1cnn(Cc2ccc(N3CC4CC4C3)nc2Cl)c1 (stereo partly drawn) [Example 127, 1-[(6-{3-Azabicyclo[3.1.0]hexan-3-yl}-2-chloropyridin-3-yl)methyl]-N-[(4R)-1-methyl-1H,4H,5H,6H-cyclopenta[d]imidazol-4-yl]-1H-pyrazole-4-carboxamide]
> 10 µM	1.7 nM	465 nM	Cn1cnc2c1CC[C@H]2NC(=O)c1cn(Cc2ccc(N3CC4CC4C3)nc2F)cn1 (stereo partly drawn) [Example 108, 1-[(6-{3-Azabicyclo[3.1.0]hexan-3-yl}-2-fluoropyridin-3-yl)methyl]-N-[(4R)-1-methyl-1H,4H,5H,6H-cyclopenta[d]imidazol-4-yl]-1H-imidazole-4-carboxamide]
	0.9 nM	139 nM	CC(O)c1nc(N2CC3CC3C2)ccc1Cn1cc(C(=O)N[C@@H]2CCc3c2ncn3C)cn1 (stereo partly drawn) [Example 88, 1-[(6-{3-Azabicyclo[3.1.0]hexan-3-yl}-2-(1-hydroxyethyl)-pyridin-3-yl)methyl]-N-[(4R)-1-methyl-1H,4H,5H,6H-cyclopenta[d]imidazol-4-yl]-1H-pyrazole-4-carboxamide]
	2.1 nM	300 nM	Cn1cnc2c1CC[C@H]2NC(=O)c1cn(Cc2ccc(N3CC4(CC4)C3)nc2F)cn1 [Example 11, 1-[(6-{5-Azaspiro[2.3]hexan-5-yl}-2-fluoropyridin-3-yl)methyl]-N-[(4R)-1-methyl-1H,4H,5H,6H-cyclopenta[d]imidazol-4-yl]-1H-imidazole-4-carboxamide]
	3.2 nM	706 nM	Cn1cnc2c1CC[C@H]2NC(=O)c1cnn(Cc2ccc(N3CC4CC4C3)nc2F)c1 (stereo partly drawn) [Example 104, 1-[(6-{3-Azabicyclo[3.1.0]hexan-3-yl}-2-fluoropyridin-3-yl)methyl]-N-[(4R)-1-methyl-1H,4H,5H,6H-cyclopenta[d]imidazol-4-yl]-1H-pyrazole-4-carboxamide]
	5.3 nM	973 nM	CCCc1nc(N2CC3CC3C2)ccc1Cn1cnc(C(=O)N[C@@H]2CCc3c2ncn3C)c1 (stereo partly drawn) [Example 31, 1-[(6-{3-Azabicyclo[3.1.0]hexan-3-yl}-2-propylpyridin-3-yl)methyl]-N-[(4R)-1-methyl-1H,4H,5H,6H-cyclopenta[d]imidazol-4-yl]-1H-imidazole-4-carboxamide]
	1.5 nM	134 nM	Cn1cnc2c1CC[C@H]2NC(=O)c1cn(Cc2ccc(N3CC4C(C3)C4(F)F)nc2CO)cn1 (stereo partly shown) [Example 96]
	0.8 nM	117 nM	C[C@@H](O)c1nc(N2CC3CC3C2)ccc1Cn1cc(C(=O)N[C@@H]2CCc3c2ncn3C)cn1 (stereo partly drawn) [Example 82, 1-[(6-{3-Azabicyclo[3.1.0]hexan-3-yl}-2-[(1R)-1-hydroxy-ethyl]pyridin-3-yl)methyl]-N-[(4R)-1-methyl-1H,4H,5H,6H-cyclopenta[d]imidazol-4-yl]-1H-pyrazole-4-carboxamide]

Reference: patent US12479827B2, “Heteroaromatic carboxamide derivatives as plasma kallikrein inhibitors” (Boehringer Ingelheim International GmbH, priority 2020, dated 2025)
